Patent publication US5872150A, “Treatment of prostate disease with a nonsteroidal anti-androgenic compound” (Merck & Co., Inc., priority 1997, dated 1999)
“Also recorded” adds a separate entry of the source.

Assays:
[1] = test system: DDT1 cells; test: DDT1 Assay: androgen (testosterone) dependent growth of DDT1 cells, MTS proliferation; assay type: cell-based, Syrian hamster
Experimental: Cells were plated in a 96 well plate at 2,000 cells/well in DFITS+0.1% fetal calf serum. […] Cell growth data were normalized to the greatest number of cells and error bars represent +/- one standard error of the mean (sem).
Media was charged every 48 hours. Cells were plated at ~2,000/well in 96-well plates or ~6,000 cells/cm^2 in DMEM: F12 (GIBCO BRL) nutrient mixture (1:)+ITS™ (insulin, transferrin, selenious acid) (Collaborative Biomedical Products/Becton Dickinson Labware) (final concentrations 5 μg/mL insulin, 5 μ/mL transferrin, 5 ng/mL selenious acid) (DFITS media)+0.1% bovine calf serum (Hyclon®, BCS defined, iron supplemented).
After 24 hours, the cells were washed with the same media except without added serum and replaced with fresh serum-free DFITS medium (day 0).
In a typical experiment, cells were plated in sets of 12 in the presence of either a mock ethanol control (0.1-0.2% total volume) or N-(4-chlorophenyl)-(Z,Z)-2,3-bis(cyclopropylmethylene) cyclopentane carboxamide dissolved in 100% ethanol as a 1000X concentrated stock solution. Cell growth was then measured using a CellTiter96™ Non-Radioactive Cell Proliferation Assay (Promega Corporation) according to the manufacturer's protocol using a Bio Kinetics EL 340 microplate reader (BioTek Instruments, Inc.). 3-(4,5-dimethylthiazol-2-yl)-5-(3-carboxyl methoxyphenyl)-2-(4-sulfophenyl)-2H-tetrazolium (MTS) was diluted into media at a final concentration of 333 μg/mL and penazine methosulfate (PMS) was used at a final concentration of 25 μM with a total volume per well of 100 μL. Plates were then incubated for one hour at 37° C. in a humidified 5% CO2 atmosphere.

[2] = molecular target: T1, androgen receptor (Homo sapiens, UniProt P10275); test: Binding to the human androgen receptor (hAR), displacement of [3H]-DHT, stable CHO transfectants; set-up: expressed in transfected cells; cytosol, 100,000×g supernatant; conditions: stable transfectants of CHO cells
T1 sequence (P10275 1-920): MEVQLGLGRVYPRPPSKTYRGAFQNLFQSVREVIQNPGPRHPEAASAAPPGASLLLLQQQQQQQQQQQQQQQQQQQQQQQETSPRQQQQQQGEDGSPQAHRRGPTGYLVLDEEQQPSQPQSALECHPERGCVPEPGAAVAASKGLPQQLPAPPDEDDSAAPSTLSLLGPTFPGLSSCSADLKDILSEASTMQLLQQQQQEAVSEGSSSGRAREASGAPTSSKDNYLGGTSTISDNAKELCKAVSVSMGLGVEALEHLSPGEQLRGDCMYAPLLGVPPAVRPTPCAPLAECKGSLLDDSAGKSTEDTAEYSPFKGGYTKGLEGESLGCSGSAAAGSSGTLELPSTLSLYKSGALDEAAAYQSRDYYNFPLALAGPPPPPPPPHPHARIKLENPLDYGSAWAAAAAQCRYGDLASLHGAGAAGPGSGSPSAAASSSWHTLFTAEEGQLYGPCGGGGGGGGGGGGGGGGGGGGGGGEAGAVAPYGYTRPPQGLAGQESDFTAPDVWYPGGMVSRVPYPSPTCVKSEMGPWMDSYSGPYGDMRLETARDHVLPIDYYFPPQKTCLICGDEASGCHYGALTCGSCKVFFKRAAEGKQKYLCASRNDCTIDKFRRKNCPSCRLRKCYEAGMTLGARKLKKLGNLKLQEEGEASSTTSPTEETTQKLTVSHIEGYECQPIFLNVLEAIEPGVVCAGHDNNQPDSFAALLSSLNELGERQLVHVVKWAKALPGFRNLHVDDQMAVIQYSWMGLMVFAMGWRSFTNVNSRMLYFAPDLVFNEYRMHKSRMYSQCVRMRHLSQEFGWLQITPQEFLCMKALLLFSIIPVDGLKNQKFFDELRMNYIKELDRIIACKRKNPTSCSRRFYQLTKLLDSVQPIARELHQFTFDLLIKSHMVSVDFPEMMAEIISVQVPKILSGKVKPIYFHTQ
Experimental: Binding to the Androgen Receptor
All samples were prepared in duplicate. […] Free steroids were removed by addition of dextran-coated charcoal followed by centrifugation at 3,000×g for fifteen minutes at 4° C.
47: 1080-1088 (1995) except that stable transfectants of CHO cells were employed (gift from Prof. Michael McPhaul Southwestern Medical Center, Dallas, Tex.) that typically express 30-80 fmoles receptor/mg soluble protein.

[3] = molecular target: T1, androgen receptor; test: Ligand dependent transcription assay, CV1 cells co-transfected with AR and probasin luciferase reporter (pPBluc + AR); assay type: cell-based; set-up: expressed in transfected cells; host or cells: CV1 cells, transient co-transfection of pSGAR with the probasin-luciferase reporter pPBluc
Experimental: FIG. 2 is a graph showing the effect of N-(4-chlorophenyl)-(Z,Z)-2,3-bis(cyclopropyl-methylene)cyclopentane carboxamide on the activation of the androgen receptor in CV1 cells, as described in Example 4.
(§1) Ligand dependent transcription assays were performed as described in Schnmidt et al. "Identification of a new member of the steroid hormone receptor superfamily that is activated by a peroxisome proliferator and fatty acids," Mol. Endocrinol. 6:1634-1641 (1992). A luciferase cDNA expressed under the control of the promoter region of the probasin gene that confers androgen receptor dependent transcription was used as a reporter gene, see Rennie et al. "Characterization of two cis-acting DNA elements involved in the androgen regulation of the probasin gene" Mol Endocrinol. 7:23-36 (1993). The promoter region, -426 to +40 of the rat probasin gene was amplified by polymerase chain reaction (PCR) and inserted upstream of the luciferase cDNA of pGL3 Basic plasmid (Promega). The expression vector pSGAR that expressed the normal human AR was used as a source of receptor, see, Chang et al. "Molecular cloning of human and rat complementary DNA encoding androgen receptors," Science 240:324-326 (1988). Transient transfection of CV1 cells was performed by plating cells (1.5×10^5 per mL) into 12 well dishes in phenol red-free medium supplemented with 10% fetal calf serum treated with activated charcoal to remove endogenous steroids. Cells were then transfected the following day by addition of a calcium phosphate precipitate of plasmid DNA. Cells were then washed with fresh media after an overnight incubation and ligands were added. Cell extracts were prepared after forty eight hours and assayed for luciferase enzyme activity using the Luciferase Assay System (Promega). Each transfection was performed in triplicate and the […] of each sample was measured using the AutoChemiluminometer (Berthold).

[4] = test system: probasin luciferase reporter gene; test: Ligand dependent transcription assay, CV1 cells with probasin reporter gene and control plasmid, no AR (pPBluc); assay type: cell-based, rat
Experimental: as §1, with “6:1634-1641 (1992).” left out, “7:23-36 (1993). The promoter region, -426 to +40 of the rat probasin gene was amplified by polymerase chain reaction (PCR) and inserted upstream of the luciferase cDNA of pGL3 Basic plasmid (Promega). The expression vector pSGAR that expressed the normal human AR was used as a source of receptor, see, Chang et al. "Molecular cloning of human and rat complementary DNA encoding androgen receptors," Science 240:324-326 (1988).” left out

| SMILES | antagonism of the action of testosterone on DDT1 cells [1] | inhibition of testosterone-induced DDT1 cell growth, comparison with hydroxyflutamide [1] | effect on testosterone-induced cell proliferation ([1]; compound at 10 μM with 10 nM testosterone) | effect on cell proliferation, compound alone ([1]; without testosterone, serum-free medium) | blocking of the binding of 3H-DHT [2] | inhibition of transactivation mediated by DHT ([3]; CV1 cells, 10 nM DHT) | luciferase expression from the pPBluc reporter gene, compound alone ([3]; CV1 cells, without DHT) | IC50 ([3]; read-out: Fifty percent inhibition of transactivation) | pPBluc, Light Units ± std ([4]; DHT 10^-7 M) | pPBluc, Light Units ± std ([4]; DHT 10^-9 M) |
| --- | --- | --- | --- | --- | --- | --- | --- | --- | --- | --- |
| O=C(Nc1ccc(Cl)cc1)C1CCC(=C/C2CC2)/C1=C\C1CC1 (stereo not shown) [N-(4-chlorophenyl)-(Z,Z)-2,3-bis(cyclopropylmethylene)cyclopentane carboxamide] | antagonizes the action of testosterone on DDT1 cells | inhibits testosterone-induced DDT1 cell growth in a manner similar to that of hydroxyflutamide | reduced cell proliferation to levels close to that of the ethanol mock control | little or no effect on cell growth by itself; also recorded: little or no effect on cell proliferation | blocks the binding of ^3 H-DHT to the human androgen receptor expressed in stable transfectants of CHO cells at doses comparable to those that antagonize testosterone in DDT1 cells | inhibited the transactivation mediated by DHT in a dose dependent manner | did not affect luciferase expression | ~2000 nM |  |  |
| C[C@]12CCC(=O)C[C@@H]1CC[C@@H]1[C@@H]2CC[C@]2(C)[C@@H](O)CC[C@@H]12 [DHT, 5α-dihydrotestosterone] |  |  |  |  |  |  |  |  | 3300 ± 1100 Light Units | 3000 ± 300 Light Units |
